Results as given in the RepoRT retention time repository (doi:10.1021/ac300829f).

experiment: RP, Thermo Scientific Hypersil GOLD, 150 × 2.1 mm, 1.9 µm, 0.5 mL/min, estimated dead time 0.66 min; A: water + 0.1% formic acid, pH 3; B: acetonitrile + 0.1% formic acid, pH 3; gradient (min/%B) 0/0 2/0 13/100 15.5/100 19/0; conditions: stereoisomer not certain

SMILES	LC retention time
CCCC(=O)OC(CC(=O)[O-])C[N+](C)(C)C (stereo not drawn) [butyrylcarnitine]	5 min
CC(=O)NCCc1c[nH]c2ccc(O)cc12 [N-acetyl-5-hydroxytryptamine (N-acetyl-serotonin)]	5.8 min
CC=C(C)C(=O)NCC(=O)O [tiglylglycine]	5.2 min
NC(CO)C(=O)O (stereo not drawn) [serine]	0.9 min
O=C(O)CC(=O)O [malonic acid]	1.04 min
OCC1NCC(O)C(O)C1OC1OC(CO)C(O)C(O)C1O (stereo not drawn) [glucopyranosylmoranoline]	4.5 min
CC(C)(CCC(=O)O)C(=O)O [2,2-dimethylglutaricacid]	6 min
N[C@@H](Cc1c[nH]c2ccccc12)C(=O)O [L-tryptophan]	0.8 min
Cc1ncc(CO)c(C(=O)O)c1O [4-pyridoxic acid]	5.6 min
COC(=O)CCCCC(=O)O [mono-methyl-adipate]	6.3 min
CCCCCC=CC(=O)OC(CC(=O)[O-])C[N+](C)(C)C (stereo not drawn) [octenoylcarnitine]	7.3 min
CCC(C)(O)C(=O)O (stereo not drawn) [2-hydroxy-2-methylbutyric acid (2-hydroxyisovaleric acid)]	4.6 min
O=C(O)c1cc(=O)c2cccc(O)c2[nH]1 [xanthurenic acid]	5.2 min
NCCCCNCCCN [spermidine]	0.8 min
O=CCC(O)C(O)CO (stereo not drawn) [deoxyribose]	0.9 min
Cn1c(=O)c2c(ncn2C)n(C)c1=O [caffeine]	5.6 min
NC(=O)CCC(N)C(=O)O (stereo not drawn) [glutamine]	0.9 min
CCCCCCCCC(=O)OC(CC(=O)[O-])C[N+](C)(C)C (stereo not drawn) [nonanoylcarnitine]	8.1 min
CC(=O)NCCC(=O)NC(Cc1cnc[nH]1)C(=O)O (stereo not drawn) [N-acetylcarnosine]	1.1 min
CCCCCCCCCC(=O)OC(CC(=O)[O-])C[N+](C)(C)C (stereo not drawn) [decanoylcarnitine]	9 min
CSCC(O)C(O)C(O)C=O (stereo not drawn) [5-methylthioribose]	1.1 min
O=C1CCNC(=O)N1 [5,6-dihydrouracil]	1.1 min
CC(C)C(=O)NCC(=O)O [N-isobutyrylglycine]	4.1 min
C[N+]1(C)CCCC1C(=O)[O-] (stereo not drawn) [stachydrine (proline betaine)]	1 min
CCCCCCCCC=CCCCCCCCC(=O)OCC(O)COP(=O)([O-])OCC[N+](C)(C)C (stereo not drawn) [1-oleoylglycerophosphocholine LysoPC(18:1)]	12 min

SMILES	LC retention time
NC(=O)c1cccnc1 [nicotinamide]	1.1 min
O=c1[nH]cnc2nc[nH]c12 [hypoxanthine]	1.1 min
O=C(O)Cc1c[nH]c2ccc(O)cc12 [5-hydroxyindoleacetic acid]	5.7 min
Nc1ccnc(=O)[nH]1 [cytosine]	1.1 min
NCCc1cnc[nH]1 [histamine]	0.8 min
O=C(O)CNC(=O)c1cccc(O)c1 [m-hydroxyhippuric acid]	6.1 min
NCCS(=O)(=O)O [taurine]	0.9 min
[NH3+]CC(=O)N1CCCC1C(=O)[O-] (stereo not drawn) [Gly-Pro]	1.1 min
CNc1nc2c(ncn2C2OC(CO)C(O)C2O)c(=O)[nH]1 (stereo not drawn) [N2-methylguanosine]	4.4 min
O=C(O)CNC(=O)c1ccc(O)cc1 [p-hydroxyhippuric acid]	4.9 min
CC(C)(O)CC(=O)O [3-hydroxy-3-methylbutyric acid (3-hydroxyisovaleric acid)]	4.2 min
CCC(CCCCCC(=O)O)C(=O)O (stereo not drawn) [2-ethylsuberic acid]	6.7 min
OCc1ccccc1O [2-hydroxybenzyl alcohol]	5.8 min
CC(=O)NC(Cc1ccccc1)C(=O)O (stereo not drawn) [N-acetylphenylalanine]	6.6 min
CC12CCC(=O)C=C1CCC1C2CCC2(C)C(OC3OC(C(=O)O)C(O)C(O)C3O)CCC12 (stereo not drawn) [testosterone glucuronide]	7.9 min
Cn1c(=O)[nH]c2[nH]c(=O)n(C)c2c1=O [1,7-dimethyluric acid]	5 min
CCCCCC(=O)OC(CC(=O)[O-])C[N+](C)(C)C (stereo not drawn) [hexanoylcarnitine]	6.6 min
O=C(O)CNC(=O)c1ccccc1 [hippuric acid]	5.8 min
O=c1[nH]c(=O)c2ncn(C3OC(CO)C(O)C3O)c2[nH]1 (stereo not drawn) [xanthosine]	4.3 min
C[N+](C)(C)[O-] [trimethylamine oxide]	0.9 min
O=C(O)CNC(=O)C=Cc1ccccc1 [cinnamoylglycine]	7 min
CC(CCC(=O)O)C1CCC2C3C(O)CC4CC(O)CCC4(C)C3CC(O)C12C (stereo not drawn) [cholic acid]	9.2 min
CN(C)c1nc2c(ncn2C2OC(CO)C(O)C2O)c(=O)[nH]1 (stereo not drawn) [N,N-dimethylguanosine]	4.8 min
Cc1cnc(=O)[nH]c1N [5-methylcytosine]	1 min
CC(=O)Nc1ccc(OC2OC(C(=O)O)C(O)C(O)C2O)cc1 (stereo not drawn) [acetaminophene glucuronide]	4.2 min

SMILES	LC retention time
CC(C)CC(=O)C(=O)O [4-methyl-2-oxovaleric acid (ketoleucine)]	5.7 min
C[N+](C)(C)CC(CC(=O)[O-])OC(=O)CCCCC(=O)O (stereo not drawn) [adipoylcarnitine]	5.3 min
CN1CC(=O)NC1=N [creatinine]	0.9 min
NC(Cc1ccc(O)cc1)C(=O)O (stereo not drawn) [tyrosine]	1.1 min
O=C(O)CNC(=O)C1=CCCCC1 [tetrahydrohippuric acid]	6.3 min
O=C(OC1OC(C(=O)O)C(O)C(O)C1O)c1c[nH]c2ccccc12 (stereo not drawn) [3-indole carboxylic acid glucuronide]	6.3 min
Nc1ncnc2c1ncn2C1OC(CO)C(O)C1O (stereo not drawn) [adenosine]	1.1 min
CN1C(=O)C(O)CC1c1cccnc1 (stereo not drawn) [trans-3-hydroxycotinine]	1.1 min
Nc1ncnc2c1ncn2C1OC2COP(=O)(O)OC2C1O (stereo not drawn) [cyclic AMP]	1 min
CN(CC(=O)O)C(=N)N [creatine]	1 min
O=C(O)CNC(=O)c1ccccc1O [o-hydroxyhippuric acid]	6.5 min
CC(=O)NCCCNCCCCN [N1-acetylspermidine]	0.9 min
CC(=O)NC(CC(=O)O)C(=O)O (stereo not drawn) [N-acetylaspartic acid]	1.1 min
CC(=O)Nc1ccc(O)cc1 [acetaminophen]	4.9 min
O=C(O)c1cccnc1 [nicotinic acid]	1.1 min
CCC(=O)OC(CC(=O)[O-])C[N+](C)(C)C (stereo not drawn) [propionylcarnitine]	3.6 min
CC(=O)NC(C)C(=O)O (stereo not drawn) [acetylalanine]	1.8 min
CC(=O)NCCCCN [N-acetylputrescine]	1.1 min
O=C(O)C(O)C(O)C(O)C(O)CO (stereo not drawn) [gluconic acid]	0.9 min
CCOC(=O)c1ccccc1C(=O)O [monoethyl phthalate]	7.6 min
NCCc1c[nH]c2ccccc12 [tryptamine]	5.7 min
Cc1ccc(C(=O)NCC(=O)O)cc1 [4-methylhippuric acid (para-methylhippuric acid)]	6.7 min
Cc1cc2c(cc1C)N(CC(O)C(O)C(O)COP(=O)(O)O)c1[nH]c(=O)[nH]c(=O)c1N2 (stereo not drawn) [FMNH]	5.7 min
CCCCCCCC(C(=O)O)C(=O)O [heptylmalonic acid]	6.1 min
NC(Cc1cnc[nH]1)C(=O)O (stereo not drawn) [histidine]	0.8 min

SMILES	LC retention time
NC(CCCC(=O)O)C(=O)O (stereo not drawn) [2-aminoadipic acid]	1.1 min
CCCCCC=CCC=CCCCCCCCC(=O)OCC(O)COP(=O)([O-])OCC[N+](C)(C)C (stereo not drawn) [1-linoleoylglycerophosphocholine GPCho(18:2)]	11.2 min
O=c1cc[nH]c(=O)[nH]1 [uracil]	1.2 min
Cc1cc2nc3c(=O)[nH]c(=O)nc-3n(CC(O)C(O)C(O)CO)c2cc1C (stereo not drawn) [riboflavin]	5.7 min
OCC1OC(O)C(O)C(O)C1O (stereo not drawn) [hexose]	0.9 min
NC(Cc1ccccc1)C(=O)O (stereo not drawn) [phenylalanine]	4.4 min
O=C(O)CCCCCCCCC(=O)O [sebacic acid]	7.6 min
CC(=O)Nc1ccn(C2OC(CO)C(O)C2O)c(=O)n1 (stereo not drawn) [N4-acetylcytidine]	4.6 min
CSCCC(N)C(=O)O (stereo not drawn) [methionine]	1.1 min
NCc1[nH]cc(CCC(=O)O)c1CC(=O)O [porphobilinogen]	4.7 min
NC(N)=NCCCC(N)C(=O)O (stereo not drawn) [arginine]	0.9 min
Nc1ccc(O)cc1 [4-aminophenol]	1.1 min
CC(C)CC(N)C(=O)O (stereo not drawn) [leucine]	1.1 min
O=C(O)C1CCCN1 (stereo not drawn) [proline]	1.1 min
NC(=O)CCC(NC(=O)Cc1c[nH]c2ccccc12)C(=O)O (stereo not drawn) [indoleacetyl glutamine]	6.1 min
CC12CCC3C(CCC4CC(OC5OC(C(=O)O)C(O)C(O)C5O)CCC43C)C1CCC2=O (stereo not drawn) [androsterone glucuronide]	8.6 min
CN1CCCC1c1cccnc1 (stereo not drawn) [nicotine]	1.1 min
Cc1ncc(C=O)c(CO)c1O [pyridoxal  isomer]	1.1 min
[NH3+]CCCCCC(=O)[O-] [6-aminocaproic acid]	1 min
Cn1c(=O)c2[nH]c(=O)[nH]c2n(C)c1=O [1,3-dimethyluric acid]	4.7 min
C[n+]1cccc(C(=O)[O-])c1 [trigonelline]	0.9 min
O=C(C=Cc1ccc(O)c(O)c1)OC1CC(O)(C(=O)O)CC(O)C1O (stereo not drawn) [chlorogenic acid]	5.5 min
CC12CCC(=O)C=C1CCC1C2CCC2(C)C(C(=O)CO)CCC12 (stereo not drawn) [deoxycorticosterone]	9.6 min
